Our source for the IC50 values is US11802133B2, “Heterocyclic compounds as monoacylglycerol lipase inhibitors” (Hoffmann-La Roche Inc., priority 2018, dated 2023).

The target of the assay is MAGL (Homo sapiens (Human), UniProt Q99685). Description: 2-AG assay: MAGL inhibitory activity by hydrolysis of 2-arachidonoylglycerol to arachidonic acid (mass spectrometry). The class given is biochemical. To be noted: measured in 2-AG assay (footnote [b]); 8 μM 2-arachidonoylglycerol. The protocol: Alternatively, compounds were profiled for MAGL inhibitory activity by determining the enzymatic activity by following the hydrolysis of the natural substrate 2-arachidonoylglycerol resulting in arachidonic acid, which can be followed by mass spectrometry. This assay is hereinafter abbreviated “2-AG assay”.
MAGL, sequence (Q99685 whole entry, species assumed): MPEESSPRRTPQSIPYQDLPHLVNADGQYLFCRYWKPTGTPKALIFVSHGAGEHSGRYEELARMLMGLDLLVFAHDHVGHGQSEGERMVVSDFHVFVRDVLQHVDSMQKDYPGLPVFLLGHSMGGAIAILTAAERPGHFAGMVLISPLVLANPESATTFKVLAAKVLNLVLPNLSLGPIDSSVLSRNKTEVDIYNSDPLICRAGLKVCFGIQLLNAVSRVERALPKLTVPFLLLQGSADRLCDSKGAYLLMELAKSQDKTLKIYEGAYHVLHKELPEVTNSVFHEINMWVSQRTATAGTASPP
A C18 SPE cartridge (G9205A) was used in an acetonitrile/water liquid setup. […] The activity of the compounds was calculated based on the ratio of intensities [arachidonic acid/d8-arachidonic acid].
A word on the IC50: it is the midpoint of a concentration-inhibition curve. Regarding `O=C1CO[C@H]2CCN(C(=O)N3CCC(Oc4ccc(Cl)c(-n5cncn5)c4)CC3)C[C@H]2N1` [Example 207], the IC50 was 50 nM. The compound `Cc1ccc(/C=C/C2CN(C(=O)N3CC[C@@H]4OCC(=O)N[C@@H]4C3)C2)c(F)c1` [Example 287] returned an IC50 of 6 nM. In the case of `O=C1CO[C@H]2CCN(C(=O)N3CCC(Oc4ccc(C(F)(F)F)cc4F)CC3)C[C@H]2N1` [Example 254] it was 64 nM; in that of `O=C1CO[C@H]2CCN(C(=O)N3CC(OCC4(c5ccc(Cl)cc5Cl)CC4)C3)C[C@H]2N1` [Example 241], 15 nM; in that of `O=C1CO[C@H]2CCN(C(=O)N3CCC(Oc4cc(C(F)(F)F)ccc4Cl)C3)C[C@H]2N1` (stereo partly shown) [Example 284], 72 nM. Then `O=C1CO[C@H]2CCN(C(=O)N3CCC(Cc4ccc(C(F)(F)F)cc4OCC(F)(F)F)CC3)C[C@H]2N1` [Example 202], with 54 nM. Compound `O=C1CO[C@H]2CCN(C(=O)N3CCC(Oc4ccc(Cl)cc4)CC3)C[C@H]2N1` [Example 210] gave an IC50 of 80 nM.

Compound `COc1cccc(C(F)(F)F)c1CCC1CN(C(=O)N2CC[C@@H]3OCC(=O)N[C@@H]3C2)C1` [Example 218] returned an IC50 of 3 nM. In the case of `O=C1CO[C@H]2CCN(C(=O)N3CCC(Oc4cc(-n5cncn5)cc(C(F)(F)F)c4)CC3)C[C@H]2N1` [Example 203] it was 871 nM.

Take `O=C1CO[C@H]2CCN(C(=O)N3CC(Oc4cc(Cl)cc(N5CC6(CCC6)C5)c4)C3)C[C@H]2N1` [Example 277, (+)-(4aR,8aS)-6-[3-[3-(2-Azaspiro[3.3]heptan-2-yl)-5-chloro-phenoxy]azetidine-1-carbonyl]-4,4a,5,7,8,8a-hexahydropyrido[4,3-b][1,4]oxazin-3-one]: the IC50 is 455 nM. In the case of `Cc1cc(OC(F)(F)F)ccc1COC1CN(C(=O)N2CC[C@@H]3OCC(=O)N[C@@H]3C2)C1C` (stereo partly shown) [Example 252] it was 5 nM; in that of `O=C1CO[C@H]2CCN(C(=O)N3CCC(Oc4ccc(Cl)c(C5CC5)c4)CC3)C[C@H]2N1` [Example 120], 7 nM. In the case of `O=C1CO[C@H]2CCN(C(=O)N3CC(Cc4cccc(OC(F)(F)F)c4)C3)C[C@H]2N1` [Example 282] it was 136 nM.

On to `O=C1CO[C@H]2CCN(C(=O)N3CC(OCc4nc(-c5ccc(F)cc5)cs4)C3)C[C@H]2N1` [Example 244], for which the IC50 is 30 nM. In the case of `Cc1cc(OCC2CCN(C(=O)N3CC[C@@H]4OCC(=O)N[C@@H]4C3)CC2)cnc1C(F)(F)F` [Example 89] it was 34 nM; in that of `Cc1cc(C(F)(F)F)ccc1OC1CCN(C(=O)N2CC[C@@H]3OCC(=O)N[C@@H]3C2)CC1` [Example 122], 8 nM.

`N#Cc1cc(OC2CN(C(=O)N3CC[C@@H]4OCC(=O)N[C@@H]4C3)C2)ccc1C(F)(F)F` [Example 263, (+)-5-[1-[(4aR,8aS)-3-Oxo-4,4a,5,7,8,8a-hexahydropyrido[4,3-b][1,4]oxazine-6-carbonyl]azetidin-3-yl]oxy-2-(trifluoromethyl)benzonitrile] displayed an IC50 of 1100 nM. Consider `O=C1CO[C@H]2CCN(C(=O)N3CC(OCc4ccc(C(F)(F)F)c(Oc5ccc(F)cc5)n4)C3)C[C@H]2N1` [Example 243], for which the IC50 was 10 nM. For the compound `O=C1CO[C@H]2CCN(C(=O)N3CC(OCc4ccc(Cl)cc4Cl)C3)C[C@H]2N1` [Example 87], the IC50 was 6 nM.

Consider `O=C1CO[C@H]2CCN(C(=O)N3CCC(Oc4ccc(Cl)c(-c5ccc(Cl)cc5)c4F)CC3)C[C@H]2N1` [Example 212], for which inhibition was half-maximal at 3 nM (IC50). Then `O=C1CO[C@H]2CCN(C(=O)N3CC(OCc4ccc(OC(F)(F)F)c(F)c4)C3)C[C@H]2N1` [Example 288], with 53 nM. Then `Cc1cc(OC[C@H]2CCN(C(=O)N3CC[C@@H]4OCC(=O)N[C@@H]4C3)C[C@H]2C)cnc1C(F)(F)F` [Example 232], with 61 nM; and `C[C@@H]1[C@@H](Oc2cc(C(F)(F)F)ccc2Br)CCN1C(=O)N1CC[C@@H]2OCC(=O)N[C@@H]2C1` [Example 247], with 1100 nM.

`O=C1CO[C@H]2CCN(C(=O)N3CCC(Oc4cc(C(F)(F)F)ccc4F)C3)C[C@H]2N1` (stereo partly shown) [Example 285]: the half-inhibitory concentration (IC50) came to 2600 nM. Then `O=C1CO[C@H]2CCN(C(=O)N3CCCC(COc4ccc(F)cc4Cl)CC3)C[C@H]2N1` (stereo partly shown) [Example 141], with 40 nM; and `O=C1CO[C@H]2CCN(C(=O)N3CC(OCc4cc(C(F)(F)F)c(C(F)(F)F)cn4)C3)C[C@H]2N1` [Example 234], with 2 nM. Then `O=C1CO[C@H]2CCN(C(=O)N3CC(Oc4cccc(N5CC6(CCCO6)C5)c4Cl)C3)C[C@H]2N1` [Example 275, (+)-(4aR,8aS)-6-[3-[2-Chloro-3-(5-oxa-2-azaspiro[3.4]octan-2-yl)phenoxy]azetidine-1-carbonyl]-4,4a,5,7,8,8a-hexahydropyrido[4,3-b][1,4]oxazin-3-one], with 32 nM; and `O=C1CO[C@H]2CCN(C(=O)N3CCC(OCc4ccc(C(F)(F)F)cc4F)(C(F)(F)F)C3)C[C@H]2N1` (stereo partly shown) [Example 245], with 1700 nM. As for `O=C1CO[C@H]2CCN(C(=O)N3CC(Oc4cc(Cl)cc(N5CCCC5)c4)C3)C[C@H]2N1` [Example 278, (+)-(4aR,8aS)-6-[3-(3-Chloro-5-pyrrolidin-l-yl-phenoxy)azetidine-1-carbonyl]-4,4a,5,7,8,8a-hexahydropyrido[4,3-b][1,4]oxazin-3-one], the IC50 is 211 nM. Take `O=C1CO[C@H]2CCN(C(=O)N3CC(Oc4cccc(N5CC6(CCCCO6)C5)c4Cl)C3)C[C@H]2N1` [Example 276, (+)-(4aR,8aS)-6-[3-[2-chloro-3-(5-oxa-2-azaspiro[3.5]nonan-2-yl)phenoxy]azetidine-1-carbonyl]-4,4a,5,7,8,8a-hexahydropyrido[4,3-b][1,4]oxazin-3-one]: the IC50 was determined as 19 nM.

With `O=C1CO[C@H]2CCN(C(=O)N3CCC(COc4ccccc4Cl)C3)C[C@H]2N1` (stereo partly shown) [Example 91], the IC50 was determined as 99 nM. In the case of `O=C1CO[C@H]2CCN(C(=O)N3CC(OCc4cc(C(F)(F)F)cc(Oc5ccc(F)cc5)n4)C3)C[C@H]2N1` [Example 242] it was 12 nM; in that of `O=C1CO[C@H]2CCN(C(=O)N3CC(Oc4ccc(C(F)(F)F)c(N5CC6(C5)CC(F)(F)C6)c4)C3)C[C@H]2N1` [Example 269, (+)-(4aR,8aS)-6-[3-[3-(6,6-Difluoro-2-azaspiro[3.3]heptan-2-yl)-4-(trifluoromethyl)phenoxy]azetidine-1-carbonyl]-4,4a,5,7,8,8a-hexahydropyrido[4,3-b][l,4]oxazin-3-one], 24 nM. Then `CC(C)(C)OC1CN(c2cccc(OC3CN(C(=O)N4CC[C@@H]5OCC(=O)N[C@@H]5C4)C3)c2Cl)C1` [Example 274, (+)-(4aR,8aS)-6-(3-(3-(3-(tert-Butoxy)azetidin-1-yl)-2-chlorophenoxy)azetidine-1-carbonyl)hexahydro-2H-pyrido[4,3-b][1,4]oxazin-3(4H)-one], with 126 nM.
